How the values were obtained:
male KK-A^y mice [1] = test: Hypotriglyceridemic action; assay type: in vivo, mouse; conditions: 4 consecutive days, non-fasting, about 24 hours after final administration, vs control group
Method: (§1) The triglyceride level in the plasma was measured using a commercially available assay kit (triglyceride G-test WAKO, Wako Pure Chemical Industries, Ltd.). The mice were grouped (5 mice per group) into a control group and an administration group, such that the mean and the standard deviation of the triglyceride level in the plasma of each group were nearly the same. Each test compound was suspended or dissolved in 5% gum arabic solution and administered orally to the administration group for 4 consecutive days from the next day. The 5% gum arabic solution was orally administered to the control group. Blood was drawn from the tail vein under a non-fasting state about 24 hours after the final administration and the triglyceride level in the plasma was measured. The decrease in the plasma triglyceride level was calculated from the following formula.
Decrease (%) in plasma triglyceride level=[(mean plasma triglyceride level of control group−mean plasma triglyceride level of test compound administration group)/mean plasma triglyceride level of control group]×100

3T3-L1 cells = test: Triglyceride accumulation promoting action in 3T3-L1 cells; assay type: cell-based; conditions: 10^−7 M test compound with 10 ng/ml insulin, 4 days; relative to control
Method: A culture medium of 80% confluent 3T3-L1 cells was removed and the cells were dissociated with 0.25% trypsin-EDTA solution. 5% FBS-DMEM (the same amount as the removed medium) was added and the obtained cell suspension was centrifuged at 25° C., 100×g for 1 min to give cell sediment and the supernatant was removed. The cells were re-suspended in a suitable amount of 5% FBS-DMEM medium and the cells were counted. 5% FBS-DMEM medium was added to adjust the concentration to 1×10^5 cells/ml and the mixture was dispensed by 1 ml to a 24 well plate. The cells were cultured with aeration of 5% CO2 at 37° C. for 2 days. Upon confirmation of a post-confluent state, the culture supernatant was changed to a medium containing 0.5 mM-IBMX, and the cells were cultured for 2 days. Then, the medium was changed to a medium containing 10 ng/ml insulin and 10^−7 M test compound and the cells were cultured further for 4 days. After removing the culture supernatant, the cells were lysed in a 0.1% SDS solution and the triglyceride amount was measured. The triglyceride accumulation (%) due to the potentiation of insulin activity by the test compound was calculated from the following formula.
[(triglyceride amount with addition of test compound−triglyceride amount of control)/triglyceride amount of control]×100

male KK-A^y mice [2] = test: Hypoglycemic action and hypoinsulinemic action in insulin resistant diabetic mouse; assay type: in vivo; conditions: 10 mg/kg orally once a day for 4 days, 24 hours after final administration, non-fasting
Method: Blood was drawn from the tail vein of 12-week-old male KK-A^y mice under a non-fasting state, and the glucose level in the plasma was measured using a commercially available assay kit (glucose CII-test WAKO, Wako Pure Chemical Industries, Ltd.). The mice were grouped (5 mice per group) into a control group and an administration group, such that the mean glucose level in the plasma and the average body weight of each group, as well as the standard deviation thereof were nearly the same. The test compound (10 mg/kg) was suspended in 5% aqueous gum arabic solution and orally administered once a day to the administration group for 4 days from the next day. The 5% aqueous gum arabic solution was orally administered to the control group. Blood was drawn from the tail vein under a non-fasting state 24 hours after the final administration. The concentrations of plasma glucose and plasma insulin were measured.

male KK-A^y mice [3] = test: Hypoglycemic action (method A); assay type: in vivo, mouse; conditions: 4 consecutive days, non-fasting, about 24 hours after final administration, vs control group
Method: as §1, with “glucose” for “triglyceride”, “(glucose CII-test” for “(triglyceride G-test”
(§2) Decrease (%) in plasma glucose level=[(mean plasma glucose level of control group−mean plasma glucose level of test compound administration group)/mean plasma glucose level of control group]×100

male KK-A^y mice [4] = test: Hypoglycemic action (method B); assay type: in vivo, mouse; conditions: 0.1 w/w % in powder feed for 4 days, blood at day 5, non-fasting, vs control group
Method: The glucose level in the plasma was measured using a commercially available assay kit (glucose CII-test WAKO, Wako Pure Chemical Industries, Ltd.). The mice were grouped (5 mice per group) into a control group and an administration group, such that the mean and the standard deviation of the glucose level in the plasma of each group were nearly the same. Each test compound was admixed in a proportion of 0.1 w/w % with a powder feed (CE-2, Clea) and the feed mixture was fed to the administration group for 4 days from the next day. A regular powder feed was fed to the control group. At day 5, blood was drawn from the tail vein under a non-fasting state and the glucose level in the plasma was measured. The decrease in the plasma glucose level was calculated from the following formula.
as §2

Cc1oc(-c2ccccc2)nc1CCOc1ccc2c(c1)CN(Cc1ccccc1)[C@H](C(=O)O)C2 [Example 2, 2-Benzyl-7-[2-(5-methyl-2-phenyloxazol-4-yl)ethoxy]-1,2,3,4-tetrahydroisoquinoline-(3S)-carboxylic acid]
Decrease (%) in plasma triglyceride level (male KK-A^y mice [1]; dose 10 mg/kg orally): 39.5% | Decrease (%) in plasma triglyceride level (male KK-A^y mice [1]; dose 30 mg/kg orally): 54.3% | Triglyceride accumulation (%) (3T3-L1 cells): 260.4% | Plasma glucose (male KK-A^y mice [2]; control 507): 313 mg/dL | Insulin (male KK-A^y mice [2]; plasma, control 43): 26 ng/mL | Decrease (%) in plasma glucose level (male KK-A^y mice [3]; dose 10 mg/kg orally): 38.3% | Decrease (%) in plasma glucose level (male KK-A^y mice [3]; dose 30 mg/kg orally): 60.6% | Decrease (%) in plasma glucose level (male KK-A^y mice [4]): 69.2%

Cc1oc(-c2ccccc2)nc1CCOc1ccc2c(c1)CN(C(=O)c1ccccc1)[C@H](C(=O)O)C2 [Example 10, 2-Benzoyl-7-[2-(5-methyl-2-phenyloxazol-4-yl)ethoxy]-1,2,3,4-tetrahydroisoquinoline-(3S)-carboxylic acid]
Decrease (%) in plasma glucose level (male KK-A^y mice [4]): 42.4%

— US6589963B2, “Heterocyclic compounds and salts thereof and medicinal use of the same” (Kyoto Pharmaceutical Industries, Ltd., priority 1999, dated 2003)
